Reference: US9029405B2, “5-(biphenyl-4-yl)-3-phenyl-1,2,4-oxadiazolyl derivatives as ligands on the sphingosine 1-phosphate(SIP)receptors” (Merck Serono S.A., priority 2010, dated 2015)
Where a name gives a salt, the structure may show the parent alone. Read-outs that look alike come from different tables or passages of the source.

Experiments:
S1P3 = S1P3 (Homo sapiens, UniProt Q99500); assay: Receptor binding assay, [33P]sphingosine 1-phosphate competition, membranes of CHO cells expressing S1P3
Protocol: (§1) Membranes were prepared from CHO cells expressing S1P1 or S1P3 for use in ligand binding studies. Cells were suspended in 50 mM TRIS, pH 7.4, 2 mM EDTA, 250 mM Sucrose (buffer A) and 1× Complete protease inhibitor cocktail (Roche), and disrupted at 4° C. by N2 decompression using a cell disruption bomb (Parr Instrument). Following centrifugation at 1000 RPM for 10 min at 4° C., the supernatant was diluted (2×) in buffer A and centrifuged again at 19000 RPM for 75 min at 4° C. The pellet was then suspended in 10 mM HEPES, pH 7.4, 1 mM EDTA, 250 mM Sucrose (Buffer B), and 1× Complete EDTA-free protease inhibitor cocktail and homogenized using a potter. Membranes were flash frozen in liquid N2 and stored at −80° C.
(§2) [33P]sphingosine 1-phosphate (3000 Ci/mmol; American Radiolabeled Chemicals, Inc.) was added to test compounds in 20% DMSO by competition. Membranes and WGA SPA beads (GE Healthcare) were added to give a final volume of 100 μl in 96-well plates or 50 μl in 384-well plates with assay concentrations of 30 pM or 15 pM [33P]sphingosine 1-phosphate (respectively for S1P1 or S1P3), 50 mM HEPES, pH 7.5, 5 mM MgCl2, 100 mM NaCl, 0.4% fatty acid-free BSA, 1-5 μg/well of proteins in 96-well plates vs 0.6-1 μg/well of proteins in 384-well plates and 100 μg/well of WGA SPA beads in 96-well plates vs 75 μg/well of WGA SPA beads in 384-well plates. Binding was performed for 60 min at RT on a shaker and bound radioactivity was measured on a PerkinElmer 1450 MicroBeta counter. Triplicate samples were averaged and normalized as percentage of inhibition relative to total binding (only DMSO in well) and non specific binding (1000-fold excess of unlabeled S1P). Binding data were analyzed using the GraphPad Prism program or Genedata software.
(§3) The “potency” or the “activity” of the compounds is determined by the Ki values as evaluated in one of the above described binding assay, 96 or 384 well plates.

S1P1 [1] = biological target: T1, S1P1 (Homo sapiens, UniProt P21453); assay: S1P1 internalization assay in S1P1-U2OS cells (cell imaging); format: cell-based; parameters: host or cells: U2OS (human bone osteosarcoma epithelial cells); settings: U2OS cells expressing S1P1-EGFP, 384-well format
Protocol: Cellular Functional Assays: Internalization of Sphinqosine-1-phosphate Receptor 1 (S1P1) in a Human Cell Line (U2OS) in a 384-Well Format Using a Cell Imaging Analysis.
The S1P1 internalization assay was performed in 384 well plates (Corning 384 black with clear bottom 3712) using S1P1-U2OS cells from BioImage (C039A), a human epithelial cell line (Human Bone Osteosarcoma Epithelial Cells). These cells expressed the human S1P1 Receptor fused to the green fluorescent protein (EGFP). A standard CMV promoter (cytomegalovirus promoter) controls the expression of S1P1-EGFP and continuous expression was maintained by addition of geneticin to the culture medium.
S1P1 Receptor desensitization induced the internalization of the membrane-localized S1P-EGFP fusion protein to endosomes, which can be monitored by cell imaging analysis.
The cells are plated in low serum medium (Dulbecco's Modified Eagle Medium (DMEM) with Glutamax-1 and high glucose, 1% Penicillin/Streptomycin, 1% Fetal Calf Serum (FCS), 0.5 mg/ml Geneticin) overnight.
The next day, S1P1-U2OS cells are incubated in 20 μl serum free medium (DMEM with Glutamax-1 and high glucose, 0.1% of fatty-acid free Bovin Serum Albumin (BSA), 10 mM, N′-2-Hydroxyethylpiperazine-N′-2 ethanesulphonic acid (HEPES) 1M) for 2 hours at 37° C./5% CO2. The cells are then treated with 4 μl compounds/agonists (6×/3% DMSO) for a total volume of 24 μl, and plates are incubated for 1 hour at 37° C./5% CO2.
S1P1-U2OS cells are fixed with 25 μl Paraformaldehyde 8% and stained with Hoechst 33345 dye (1:1000) for 20 minutes.
They were then washed 3 times with Phosphate Buffered Saline (PBS) and plates are sealed. The internalization of the receptor S1P1-EGFP is measured on Cellomics by calculating the “spot count per object” (“object” corresponds to nuclear and “spot” corresponds to S1P1-EGFP receptor). Internalization data were observed thanks to vHCS View and analyzed using Genedata® software.
Target sequence in this assay (P21453 whole entry): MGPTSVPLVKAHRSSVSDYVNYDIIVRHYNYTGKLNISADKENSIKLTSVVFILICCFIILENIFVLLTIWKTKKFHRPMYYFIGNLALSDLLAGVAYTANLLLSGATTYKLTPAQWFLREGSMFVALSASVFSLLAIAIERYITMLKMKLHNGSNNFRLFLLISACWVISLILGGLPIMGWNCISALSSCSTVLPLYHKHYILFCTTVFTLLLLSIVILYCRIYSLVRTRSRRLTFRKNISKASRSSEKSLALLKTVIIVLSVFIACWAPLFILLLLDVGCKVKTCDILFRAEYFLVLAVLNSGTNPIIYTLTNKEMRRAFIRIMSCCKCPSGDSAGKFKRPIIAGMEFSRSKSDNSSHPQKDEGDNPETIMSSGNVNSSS

S1P1 [2] = biological target: T1, S1P1; assay: Receptor binding assay, [33P]sphingosine 1-phosphate competition, membranes of CHO cells expressing S1P1
Protocol: as §1, §2, §3
Target sequence in this assay (P21453 whole entry, species assumed): as the sequence (P21453 whole entry) above

[3] = 384 well plate, read-out: S1P3 Binding Ki [M] (384 well plate)
[4] = 384 well plate, read-out: S1P1 Binding Ki [M] (384 well plate)
[5] = 96 well plate, read-out: S1P3 Binding Ki [M] (96 well plate)
[6] = 96 well plate, read-out: S1P1 Binding Ki [M] (96 well plate)

S1P3, sequence (Q99500 whole entry, species assumed): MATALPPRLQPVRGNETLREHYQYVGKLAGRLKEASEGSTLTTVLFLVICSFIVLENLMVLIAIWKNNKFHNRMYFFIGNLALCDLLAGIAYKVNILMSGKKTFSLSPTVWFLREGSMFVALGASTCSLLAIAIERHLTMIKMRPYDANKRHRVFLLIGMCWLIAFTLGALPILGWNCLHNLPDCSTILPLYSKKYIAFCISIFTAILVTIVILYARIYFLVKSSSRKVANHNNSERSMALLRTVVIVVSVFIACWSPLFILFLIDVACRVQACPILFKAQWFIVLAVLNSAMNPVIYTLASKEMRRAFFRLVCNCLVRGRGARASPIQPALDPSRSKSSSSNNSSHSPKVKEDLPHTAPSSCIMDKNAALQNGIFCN

Ki (S1P3; [3]) | EC50 (S1P1 [1]) | Ki (S1P1 [2]; [4]) | Ki (S1P3; [5]) | Ki (S1P1 [2]; [6]) | Compound
7.2e-07 M | 0.00843 µM | 1.23e-09 M | – | – | COCc1cc(-c2nc(-c3ccc(CNC(C)(C)C(=O)O)c(F)c3)no2)ccc1-c1ccccc1C [Example 16, N-(2-fluoro-4-{5-[2-(methoxymethyl)-2′-methylbiphenyl-4-yl]-1,2,4-oxadiazol-3-yl}benzyl)-2-methylalanine, hydrochloride salt]
2.25e-06 M | 0.021 µM | 2.01e-09 M | – | – | Cc1ccccc1-c1ccc(-c2nc(-c3ccc([C@H](C)N[C@H](C)C(=O)O)cc3)no2)cc1C(F)(F)F [Example 17, N-[(1S)-1-(4-{5-[2′-methyl-2-(trifluoromethyl)biphenyl-4-yl]-1,2,4-oxadiazol-3-yl}phenyl)ethyl]-D-alanine, hydrochloride salt]
3.65e-06 M | 0.116 µM | 1.03e-08 M | – | – | Cc1ccccc1-c1ccc(-c2nc(-c3ccc([C@H](C)N[C@@H](C)C(=O)O)cc3)no2)cc1C(F)(F)F [Example 18, N-[(1S)-1-(4-{5-[2′-methyl-2-(trifluoromethyl)biphenyl-4-yl]-1,2,4-oxadiazol-3-yl}phenyl)ethyl]-L-alanine, hydrochloride salt]
2.56e-06 M | 0.0456 µM | 3.98e-09 M | – | – | Cc1ccccc1-c1ccc(-c2nc(-c3ccc([C@@H](C)N[C@@H](C)C(=O)O)cc3)no2)cc1C(F)(F)F [Example 19, N-[(1R)-1-(4-{5-[2′-methyl-2-(trifluoromethyl)biphenyl-4-yl]-1,2,4-oxadiazol-3-yl}phenyl)ethyl]-L-alanine, hydrochloride salt]
2.27e-06 M | 0.00757 µM | 1.63e-09 M | 6.83e-06 M | 8.67e-10 M | Cc1ccccc1-c1ccc(-c2nc(-c3ccc([C@@H](C)N[C@H](C)C(=O)O)cc3)no2)cc1C(F)(F)F [Example 20, N-[(1R)-1-(4-{5-[2′-methyl-2-(trifluoromethyl)biphenyl-4-yl]-1,2,4-oxadiazol-3-yl}phenyl)ethyl]-D-alanine, hydrochloride salt]
1.21e-06 M | 0.0112 µM | 2.19e-09 M | – | – | Cc1ccccc1-c1ccc(-c2nc(-c3ccc([C@H](C)NCC(=O)O)cc3)no2)cc1C(F)(F)F [Example 21, N-[(1S)-1-(4-{5-[2′-methyl-2-(trifluoromethyl)biphenyl-4-yl]-1,2,4-oxadiazol-3-yl}phenyl)ethyl]glycine, hydrochloride salt]
4.7e-07 M | 0.00651 µM | 1.72e-09 M | 5.98e-07 M | 4.14e-10 M | Cc1ccccc1-c1ccc(-c2nc(-c3ccc([C@@H](C)NCC(=O)O)cc3)no2)cc1C(F)(F)F [Example 22, N-[(1R)-1-(4-{5-[2′-methyl-2-(trifluoromethyl)biphenyl-4-yl]-1,2,4-oxadiazol-3-yl}phenyl)ethyl]glycine, hydrochloride salt]
7.05e-06 M | 0.0213 µM | 1.71e-09 M | – | – | Cc1cc(-c2nc(-c3ccc(C(C)NCC(=O)O)cc3)no2)ccc1-c1ccccc1C(F)(F)F (stereo not shown) [Example 23, N-[1-(4-{5-[2-methyl-2′-(trifluoromethyl)biphenyl-4-yl]-1,2,4-oxadiazol-3-yl}phenyl)ethyl]glycine, hydrochloride salt]
5.84e-08 M | 0.046 µM | 5.95e-10 M | – | – | Cc1ccccc1-c1ccc(-c2nc(-c3cccc(C(C)N(C)[C@@H](C)C(=O)O)c3)no2)cc1C(F)(F)F (stereo partly shown) [Example 29, N-methyl-N-[1-(3-{5-[2′-methyl-2-(trifluoromethyl)biphenyl-4-yl]-1,2,4-oxadiazol-3-yl}phenyl)ethyl]alanine, hydrochloride salt]
4.33e-07 M | 0.00758 µM | 1.69e-09 M | – | – | Cc1ccccc1-c1ccc(-c2nc(-c3ccc(C(C)NCC(=O)O)cc3)no2)cc1C(F)(F)F (stereo not shown) [Example 32, N-[1-(4-{5-[2′-methyl-2-(trifluoromethyl)biphenyl-4-yl]-1,2,4-oxadiazol-3-yl}phenyl)ethyl]glycine, hydrochloride salt]
6e-06 M | 0.0263 µM | 4.47e-09 M | – | – | Cc1ccccc1-c1ccc(-c2nc(-c3ccc([C@H](C)N(C)CC(=O)O)cc3)no2)cc1C(F)(F)F [Example 34, N-methyl-N-[(1S)-1-(4-{5-[2′-methyl-2-(trifluoromethyl)biphenyl-4-yl]-1,2,4-oxadiazol-3-yl}phenyl)ethyl]glycine, hydrochloride salt]
7.93e-07 M | 0.0336 µM | 2.55e-09 M | – | – | Cc1ccccc1-c1ccc(-c2nc(-c3ccc([C@@H](C)N(C)CC(=O)O)cc3)no2)cc1C(F)(F)F [Example 36, N-methyl-N-[(1R)-1-(4-{5-[2′-methyl-2-(trifluoromethyl)biphenyl-4-yl]-1,2,4-oxadiazol-3-yl}phenyl)ethyl]glycine, hydrochloride salt]
3.4e-06 M | 0.0151 µM | 1.44e-09 M | – | – | COCc1cc(-c2nc(-c3ccc(C(C)N(C)[C@@H](C)C(=O)O)cc3)no2)ccc1-c1ccccc1C (stereo partly shown) [Example 37, N-[1-(4-{5-[2-(methoxymethyl)-2′-methylbiphenyl-4-yl]-1,2,4-oxadiazol-3-yl}phenyl)ethyl]-N-methylalanine]
1.43e-06 M | 0.0779 µM | 2.84e-09 M | – | – | Cc1cc(-c2nc(-c3cccc(C(C)NCC(=O)O)c3)no2)ccc1-c1ccccc1C(F)(F)F (stereo not shown) [Example 38, N-[1-(3-{5-[2-methyl-2′-(trifluoromethyl)biphenyl-4-yl]-1,2,4-oxadiazol-3-yl}phenyl)ethyl]glycine, hydrochloride salt]
3.18e-06 M | 0.0209 µM | 4.34e-09 M | – | – | Cc1ccccc1-c1ccc(-c2nc(-c3ccc(C(C)N(C)[C@@H](C)C(=O)O)cc3)no2)cc1C(F)(F)F (stereo partly shown) [Example 39, N-methyl-N-[1-(4-{5-[2′-methyl-2-(trifluoromethyl)biphenyl-4-yl]-1,2,4-oxadiazol-3-yl}phenyl)ethyl]alanine]
5.32e-07 M | 0.0178 µM | 2.17e-09 M | – | – | Cc1ccccc1-c1ccc(-c2nc(-c3ccc(C(C)N(C)CC(=O)O)cc3)no2)cc1C(F)(F)F (stereo not shown) [Example 40, N-methyl-N-[1-(4-{5-[2′-methyl-2-(trifluoromethyl)biphenyl-4-yl]-1,2,4-oxadiazol-3-yl}phenyl)ethyl]glycine, hydrochloride salt]
8.72e-06 M | 0.0128 µM | 4.88e-09 M | – | – | CCC(NCc1ccc(-c2noc(-c3ccc(-c4ccccc4C)c(C(F)(F)F)c3)n2)cc1F)C(=O)O (stereo not shown) [Example 41, 2-[(2-fluoro-4-{5-[2′-methyl-2-(trifluoromethyl)biphenyl-4-yl]-1,2,4-oxadiazol-3-yl}benzyl)amino]butanoic acid, hydrochloride salt]
1.06e-07 M | 0.00717 µM | 1.02e-09 M | – | – | Cc1ccccc1-c1ccc(-c2nc(-c3cccc(C(C)NCC(=O)O)c3)no2)cc1C(F)(F)F (stereo not shown) [Example 42, N-[1-(3-{5-[2′-methyl-2-(trifluoromethyl)biphenyl-4-yl]-1,2,4-oxadiazol-3-yl}phenyl)ethyl]glycine, hydrochloride salt]
